Test results as given in ChEMBL document CHEMBL1130943, “Novel inhibitors of alpha 4 beta 1 integrin receptor interactions through library synthesis and screening” (Bioorg Med Chem Lett, 1998).

Columns and labels:
Type in all cases: protein-complex assay
Integrin alpha-4/beta-1 [1] = target: T1, Integrin alpha-4/beta-1 (Homo sapiens, UniProt P05556+P13612); assay: Inhibition of alpha4-beta1 integrin connecting segment 1 (CS1) splice variant binding interaction
Target sequence in this assay (P05556 21-798 limits assumed, change not shown): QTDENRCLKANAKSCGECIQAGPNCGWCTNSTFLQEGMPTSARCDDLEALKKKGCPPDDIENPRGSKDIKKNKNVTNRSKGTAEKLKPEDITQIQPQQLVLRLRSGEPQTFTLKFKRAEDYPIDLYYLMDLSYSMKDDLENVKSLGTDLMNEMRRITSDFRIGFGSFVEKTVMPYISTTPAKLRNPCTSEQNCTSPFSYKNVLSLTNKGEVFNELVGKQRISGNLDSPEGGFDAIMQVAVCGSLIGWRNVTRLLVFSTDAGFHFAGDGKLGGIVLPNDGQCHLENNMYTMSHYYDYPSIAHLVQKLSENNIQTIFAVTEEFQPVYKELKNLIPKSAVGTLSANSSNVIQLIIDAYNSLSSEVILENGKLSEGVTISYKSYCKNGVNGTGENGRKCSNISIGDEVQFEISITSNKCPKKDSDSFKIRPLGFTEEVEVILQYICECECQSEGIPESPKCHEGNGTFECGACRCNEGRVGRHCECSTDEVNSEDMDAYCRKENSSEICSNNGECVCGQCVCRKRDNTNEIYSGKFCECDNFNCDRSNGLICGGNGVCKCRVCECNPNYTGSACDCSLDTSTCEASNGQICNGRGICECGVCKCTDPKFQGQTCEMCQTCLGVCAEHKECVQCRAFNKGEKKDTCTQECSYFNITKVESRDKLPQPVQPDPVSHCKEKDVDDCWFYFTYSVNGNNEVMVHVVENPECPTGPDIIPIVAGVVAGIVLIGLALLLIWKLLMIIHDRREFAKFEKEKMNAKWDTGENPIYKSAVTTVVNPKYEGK
Target sequence in this assay (P13612 34-1032 limits assumed, change not shown): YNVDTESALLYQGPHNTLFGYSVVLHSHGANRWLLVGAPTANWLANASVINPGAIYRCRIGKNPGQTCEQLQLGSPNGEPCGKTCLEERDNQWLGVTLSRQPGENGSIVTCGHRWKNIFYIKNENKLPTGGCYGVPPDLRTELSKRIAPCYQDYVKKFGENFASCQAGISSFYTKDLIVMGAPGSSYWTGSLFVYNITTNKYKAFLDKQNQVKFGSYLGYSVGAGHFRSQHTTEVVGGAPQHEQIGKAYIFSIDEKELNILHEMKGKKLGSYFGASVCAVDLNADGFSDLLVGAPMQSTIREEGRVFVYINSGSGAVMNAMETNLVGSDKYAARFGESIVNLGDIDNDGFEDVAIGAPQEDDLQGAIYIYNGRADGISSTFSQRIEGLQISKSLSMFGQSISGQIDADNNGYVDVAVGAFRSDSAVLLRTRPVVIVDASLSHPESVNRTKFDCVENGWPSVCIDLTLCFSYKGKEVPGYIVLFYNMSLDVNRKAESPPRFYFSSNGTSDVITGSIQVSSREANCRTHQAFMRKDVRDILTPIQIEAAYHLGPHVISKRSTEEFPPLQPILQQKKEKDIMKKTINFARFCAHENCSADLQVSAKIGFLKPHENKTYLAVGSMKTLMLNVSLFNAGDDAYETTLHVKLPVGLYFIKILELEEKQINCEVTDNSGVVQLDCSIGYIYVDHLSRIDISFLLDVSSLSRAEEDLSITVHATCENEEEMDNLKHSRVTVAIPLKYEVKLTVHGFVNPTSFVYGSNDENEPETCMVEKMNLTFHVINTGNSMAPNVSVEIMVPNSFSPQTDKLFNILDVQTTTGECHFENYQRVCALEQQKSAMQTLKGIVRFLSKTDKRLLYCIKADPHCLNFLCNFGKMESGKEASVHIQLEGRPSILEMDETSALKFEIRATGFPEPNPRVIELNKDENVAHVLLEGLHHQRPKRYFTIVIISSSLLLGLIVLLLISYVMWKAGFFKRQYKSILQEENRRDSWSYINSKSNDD

Integrin alpha-4/beta-1 [2] = target: T1, Integrin alpha-4/beta-1; assay: Inhibition of alpha4-beta1 integrin connecting segment 1 (CS1) splice variant binding interaction at 100 uM
Integrin alpha-4/beta-1 [3] = target: T1, Integrin alpha-4/beta-1; assay: Inhibition of alpha4-beta1 integrin connecting segment 1 (CS1) splice variant binding interaction 100 uM

Row | IC50 (Integrin alpha-4/beta-1 [1]) [µM] | inhibition (Integrin alpha-4/beta-1 [2]) [%] | inhibition (Integrin alpha-4/beta-1 [3]) [%] | Structure (SMILES)
1 | > 100 | 41 | – | CCCCN1CCS[C@@H](CC(=O)O)C(=O)N[C@@H](Cc2ccccc2)C1=O
2 | 5 | 100 | – | O=C(O)CCN1CCS[C@H](CC(=O)O)C(=O)N[C@@H](Cc2ccc(O)cc2)C1=O
3 | 8 | – | 100 | O=C(O)CCN1CCS[C@@H](CC(=O)O)C(=O)N[C@@H](Cc2ccc(O)cc2)C1=O
4 | > 100 | 0 | – | CC(C)CCN1CCS[C@@H](CC(=O)O)C(=O)N[C@@H](Cc2ccccc2)C1=O
